Consider 2 molecules from patent US20120178124A1, “STEROL SIDE CHAIN-CLEAVING ENZYME PROTEIN AND USE THEREOF” (MITSUBISHI CHEMICAL CORPORATION, priority 2009, published 2012).

One data set has as its target T1, CYP11A (Homo sapiens, UniProt P05108).
T1 construct: A 1.45-kb CYP11A1 gene fragment amplified as a result of the above-described reaction; expressed in transfected cells; host or cells: Escherichia coli BL21(DE3), plasmid pCYP11A-ARX (strain BL21CYP11)
T1 sequence (P05108 40-521): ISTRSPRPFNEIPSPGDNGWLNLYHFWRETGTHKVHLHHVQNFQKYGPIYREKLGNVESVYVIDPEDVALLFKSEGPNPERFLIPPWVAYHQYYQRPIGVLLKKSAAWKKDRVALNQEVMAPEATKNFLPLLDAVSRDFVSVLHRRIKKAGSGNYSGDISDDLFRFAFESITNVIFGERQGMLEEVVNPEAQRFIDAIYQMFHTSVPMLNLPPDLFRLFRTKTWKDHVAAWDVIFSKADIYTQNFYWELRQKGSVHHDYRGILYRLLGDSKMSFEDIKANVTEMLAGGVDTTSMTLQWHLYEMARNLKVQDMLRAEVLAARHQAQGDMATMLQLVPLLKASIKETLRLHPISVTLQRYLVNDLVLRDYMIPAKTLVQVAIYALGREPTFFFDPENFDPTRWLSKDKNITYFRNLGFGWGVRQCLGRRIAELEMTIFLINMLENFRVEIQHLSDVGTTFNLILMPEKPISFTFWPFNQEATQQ
Put plainly: Conversion reaction of substrates by CYP11A-expressing Escherichia coli. Format: cell-based. Here is the method: The Escherichia coli expression strain BP215 was inoculated into 2 ml of an M9 mix medium (Na2HPO4: 0.68%, KH2PO4: 0.3%, NaCl: 0.05%, NH4C;: 0.01%, Casamino acid: 1%, D-Glucose: 0.4%, CaCl2: 0.1 mM, MgCl2: 1 mM, Thiamine: 0.002%, FeSO4: 0.1 mM, Carbenicillin: 0.005%), and it was then subjected to shaking culture at 30° C. for 17 hours, so as to obtain pre-culture solution. 0.25 ml of this pre-culture solution was inoculated into 25 ml of the main culture medium (Na2HPO4: 0.68%, KH2PO4: 0.3%, NaCl: 0.05%, NH4Cl: 0.01%, Casamino acid: 1%, CaCl2: 0.1 mM, MgCl2: 1 mM, Thiamine: 0.002%, FeSO4: 0.1 mM, Carbenicillin: 0.005%, Overnight Express™ solution: 7%, 5-Aminolevlic acid: 0.008%) using Overnight Express™ Autoinduction System (Novagen Cat. No. 71300-4), and it was then subjected to shaking culture at 25° C. for 24 hours. 5 ml of the obtained main culture solution was centrifuged (3500 rpm, 10 minutes) to obtain cell mass, and 1 ml of CV2 buffer (50 mM (pH) potassium phosphate buffer containing glycerol: 2%, carbenicillin: 0.005%, and isopropyl β-D-1-thiogalactopyranoside: 0.1 mM) was added to the obtained cell mass. Thereafter, 0.01 ml of the methanol solution of 1% 4-cholesten-3-one and 0.02 ml of an aqueous solution of 25% methyl-β-cyclodextrin were added to the mixed solution, and the obtained mixture was then shaken at 28° C. for 5 hours for the reaction. After completion of the reaction, 4 ml of methanol was added to the reaction solution, and they were then fully mixed. The obtained mixture was centrifuged, and the upper layer was then analyzed by HPLC.
A commercially available human testis cDNA (Origene Technologies, Inc.) was used as a template, and a CYP11A1 gene was amplified by PCR using a primer CYP11A-1F (SEQ ID NO: 19) and a primer CYP11A-2R (SEQ ID NO: 20), and also using KOD plus polymerase (TOYOBO Co., Ltd.). The temperature conditions applied during the PCR were 94° C./3 min, 30 cycles of (94° C./30 sec, 55° C./60 sec, and 72° C./90sec), and 72° C./5 min.
A 1.45-kb CYP11A1 gene fragment amplified as a result of the above-described reaction was purified using QIAquick PCR purification Kit (manufactured by QIAGEN), and it was then digested with Nde I and Spe I. Thereafter, the digest was ligated to Escherichia coli expression vector pT7NS-camAB, using T4 DNA ligase, and Escherichia coli DH5α was then transformed with the obtained expression vector, so as to construct a plasmid pCYP11A-camAB. Subsequently, using T4 DNA ligase, the previously prepared bovine-derived adrenodoxin reductase protein-adrenodoxin gene (adr-adx) fragment was inserted into and ligated to each of the Spe I and Bam HI sites of the above-described plasmid, and Escherichia coli DH5a was then transformed with the obtained plasmid, so as to construct plasmid pCYP11A-ARX. Thereafter, Escherichia coli BL21(DE3) was transformed with the thus constructed plasmid, and the obtained cell strain was named as BL21CYP11. The used adx-adr fragment was amplified by PCR with a plasmid pKARX (Sawada et. al. Eur. J. Biochem. 265, 950-956,1999) as a template, using primer bAdxR-1F (SEQ ID NO: 21) and primer bAdx-2R (SEQ ID NO: 22), and also using KOD plus polymerase (manufactured by TOYOBO Co., Ltd.). The temperature condition applied during the PCR were 94° C./3 min, 25 cycles of (94° C./30 sec, 60° C./30 sec, and 72° C./120sec), and 72° C./5 min.
Each substrate was subjected to the same reaction as that of Example 6, separately, and the reaction solution was then subjected to liquid separation using 1 ml of ethyl acetate. The reaction product and the substrate were extracted, and were then analyzed by HPLC.

Substrate in data set [1]: CC(C)CCC[C@@H](C)[C@H]1CC[C@H]2[C@@H]3CCC4=CC(=O)CC[C@]4(C)[C@H]3CC[C@]12C
Kind of data set: purified protein, by the assay type. Particulars: other: 4-cholesten-3-one 0.1 to 500 μM, pH 7.5, 15° C., 60 minutes, Lineweaver-Burk plot.

Consider `CC(C)CCC[C@@H](C)[C@H]1CC[C@H]2[C@@H]3CCC4=CC(=O)CC[C@]4(C)[C@H]3CC[C@]12C` [4-cholesten-3-one], for which the added substrate remained at CYP11A (same reaction as Example 6) is on record as 100%. The molecule also showed a Conversion rate at CYP11A (same reaction as Example 6 (28° C., 5 hours)) of 0%.

B1: Sphingomonas subterranea NBRC16086 P450scc CYPSS204A (CYPSS), wild type, SEQ ID NO: 2 (Novosphingobium subterraneum) (protein)
chain: MASAAAGADGLPLLDGGVPLLGHLAQFFRDPVSVLKRGYRSKGRLFAMNFMGQRMNVMLGPEHNRFFFEETDKLLSIRESMPFFLKMFSPEFYSFAEMDEYLRQRAIIMPRFKAASMKQYVPVMVEESLNLVERLGEEGEFDLIPTLGPVVMDIAAHSFMGREFHEKLGHEFFELFRDFSGGMEFVLPLWLPTPKMVKSQRAKKKLHAILQSWIDKRRASPLDPPDFFQTMIETKYPDGRAVPDEIIRHLILLLVWAGHETTAGQVSWALADLLQNPGYQQVLREEVASLLGGSDGRALGWEQAVAMEKMDLALRETERLHPVAYMLSRKASADIERDGYRIRKGEFVLLAPSVSHRMEETFRNADAYDPERFNPQNPDAQIESNSLIGFGGGVHRCAGVNFARMEMKVLVAILLQNFDMELIDEVRPIAGASTYWPAQPCRVRYKRRKLDGAGGSADVAALAKAAGCPAHA
Turning to B1, the Km in data set [1] worked out at 1.1 µM.

Usually Km stands for the concentration of substrate that gives half-maximal velocity.
